Values quoted from earlier work, collected in patent publication US20250000937A1 (ZHAOKE (HONG KONG) OPHTHALMOLOGY PHARMACEUTICAL LTD., priority 2021, published 2025).

Columns and labels:
[1] = in vivo
DED [2] = settings: in vivo
DED [3] = settings: OPUS-1, mean baseline ICSS of 1.84

- Patients with instillation site pain [1]: 22%
Compound: CS(=O)(=O)c1cccc(C[C@H](NC(=O)c2c(Cl)cc3c(c2Cl)CCN(C(=O)c2ccc4ccoc4c2)C3)C(=O)O)c1 [Lifitegrast]
- Time to show efficacy against DED signs and symptoms (DED [2]): 3 months
- Proportion of patients with at least a 1-point improvement in ICSS from baseline to day 84 (DED [3]): 22.2%
